{"source": "a melting point compilation (Tetko et al.; mined from patent text by program, amines drawn as free bases though some values may be those of a salt)"}
{"units": {"melting point": "°C"}}
{"smiles": "CN(C)CCOC(=O)c1cc2cccc(OCc3ccccc3)c2[nH]1", "melting point": "113 to 115"}
{"smiles": "CCOC(=O)c1c(CN(CC)CC)nc2sc(C)c(C)c2c1-c1ccc(OC)cc1", "melting point": "116 to 118"}
{"smiles": "C=CCOc1cc(OC(=S)N2CCSC2)ccc1Cl", "melting point": "104 to 106"}
{"smiles": "N#Cc1c(Cl)[nH]c2cccnc12", "melting point": "> 250"}
{"smiles": "CCOc1cc2cc(CO)c(CO)c(-c3ccncc3)c2cc1OCC", "melting point": "159 to 161"}
{"smiles": "CSc1ccc(C(=O)NCc2ccc3c(c2)C(=O)N(C2(C)CCC(=O)NC2=O)C3=O)cc1", "note": "(stereo unspecified)", "melting point": "218 to 220"}
{"smiles": "COc1ccc(CCNC(=O)C(N)=O)cc1OC1CCCC1", "melting point": "175 to 176"}
{"smiles": "O=C1CCC2(CC1)OC(c1ccccc1)c1ccccc12", "note": "(stereo unspecified)", "melting point": "143 to 145"}
{"smiles": "Cc1cc(OC/C=C/c2ccc(C(C)C)cc2)c(C)c(C)c1NC=O", "melting point": "165 to 167"}
{"smiles": "Cc1c(C(=O)O)cnn1-c1nc(-c2ccccc2C(F)(F)F)cs1", "melting point": 216}
{"smiles": "Cc1c(Cc2cc(Cl)cc(Cl)c2)c(C(C)C)nn1CCO", "melting point": "77 to 78"}
{"smiles": "Cc1[nH]c(=S)n(Nc2ccccc2)c1C", "melting point": "217 to 219"}
{"smiles": "CCCCCCCCN(C(=O)Nc1ccc(C(=O)O)cc1)c1ccc2c(c1)C(C)(C)CCC2(C)C", "melting point": "166 to 167"}
{"smiles": "Cc1nn(-c2ccccn2)c2nc3ccccc3c(C#N)c12", "melting point": "210 to 211"}
{"smiles": "Oc1ccc(Nc2cnc3cnc(-c4ccc(O)cc4)nc3c2)cc1", "melting point": "168 to 170"}
{"smiles": "COC(=O)C[C@@H](SCc1ccccc1)C(N)=O", "melting point": "146 to 149"}
{"smiles": "COc1cc2c(cc1OC)C(C(S)(C#N)CCC(=O)OCCC(C)C)=NCC2", "note": "(stereo unspecified)", "melting point": 120}
{"smiles": "CCN(CC)Cc1nc(-c2ncn3c2CN(C)C(=O)c2cc(F)ccc2-3)no1", "melting point": "172 to 174"}
{"smiles": "C=CCNc1cc(C(=O)OCC)nc2cn[nH]c12", "melting point": "140 to 145"}
{"smiles": "Cc1cccc(-c2[nH]c(C(C)C)nc2-c2cccc(-c3ccc(NS(C)(=O)=O)cc3)c2)n1", "melting point": "128 to 130"}
{"smiles": "COCOc1ccc2c(N)noc2c1", "melting point": "88 to 89"}
{"smiles": "COC(=O)CCn1c(=O)n(CCN2CCN(c3ccccc3OC)CC2)c(=O)c2sccc21", "melting point": "151 to 152"}
{"smiles": "O=C(NC1CCN(CCc2ccccc2)CC1)c1ccccc1", "melting point": "164 to 167"}
{"smiles": "COc1ccc(/C(=C\\C=C\\C(=O)O)c2cccnc2)cc1", "melting point": "235 to 238"}
{"smiles": "CCOC(=O)Oc1ccc(S(=O)(=O)N2c3c(C)cccc3-n3cccc3C2CC)cc1", "note": "(stereo unspecified)", "melting point": 104}
{"smiles": "CC(=O)NC(C)C(=O)NCC(=O)O", "note": "(racemic)", "melting point": "79 to 82"}
{"smiles": "N#Cc1c(OCCO)nc(CCO)nc1N1CCc2ccccc2CC1", "melting point": "118 to 120"}
{"smiles": "N#Cc1cc2cc(F)c(F)cc2o1", "melting point": 103}
{"smiles": "COc1cc(CC(=O)NCCCc2ccc(C)c(C)c2)ccc1OCCBr", "melting point": 105}
{"smiles": "CCOC(=O)c1ccc(OCc2ccc(Cl)cc2)cc1", "melting point": "83 to 84"}
{"smiles": "COc1ccc(C2=NN(C3CCN(S(C)(=O)=O)CC3)C(=O)CC2)cc1OC", "melting point": "164 to 166"}
{"smiles": "COc1nc(N)nc2c1ncn2C1OC(CO)C(OC(=O)c2ccccc2)C1O", "note": "(stereo unspecified)", "melting point": "155 to 157"}
{"smiles": "CN1CCC(N(C)S(=O)(=O)c2ccc(Nc3nccc(Nc4cc(F)c(F)c(F)c4)n3)cc2)CC1", "melting point": 227}
{"smiles": "O=S(=O)(Cc1cn(C23CC4CC(CC(C4)C2)C3)nn1)c1cc(Cl)ccc1Cl", "melting point": "198 to 199"}
{"smiles": "CC=C1CCC2C3=CC=C4CC(O[Si](C)(C)C(C)(C)C(C)C)CCC4(C)C3CCC12C", "note": "(stereo unspecified)", "melting point": "94 to 97"}
{"smiles": "Cc1cc(Cl)nnc1NN", "melting point": "191 to 192"}
{"smiles": "O=C(O)CCCCc1c[nH]c2ccc(F)cc12", "melting point": "86 to 92"}
{"smiles": "CN(C)c1c(Cl)cc(C(O)CNC(C)(C)C)cc1Cl", "note": "(stereo unspecified)", "melting point": "96 to 99"}
{"smiles": "N#CC1OC(COC(=O)c2ccccc2)C(OC(=O)c2ccccc2)C1OC(=O)c1ccccc1", "note": "(stereo unspecified)", "melting point": "77 to 78"}
{"smiles": "N#Cc1ccc(S(=O)(=O)N2CCCC2c2ccc(F)cc2)cc1", "note": "(racemic)", "melting point": 147}
{"smiles": "O=C1NCCN1Cc1c(Cl)cccc1Cl", "melting point": "156 to 158"}
{"smiles": "O=C1COCC2=C1C(c1ccc(F)c(I)c1)C1=C(CCS1)N2", "note": "(stereo unspecified)", "melting point": "> 260"}
{"smiles": "CCNc1nc(-c2cccc([N+](=O)[O-])c2)c2cc(OC)c(OC)cc2n1", "melting point": "164 to 166"}
{"smiles": "Cc1nnnn1-c1ccc(/C(=C\\C2CCCC2)C(=O)O)cc1Cl", "melting point": "216 to 219"}
{"smiles": "CC(=O)N1c2ccccc2CCc2ccc(C(=O)O)cc21", "melting point": "189 to 190"}
{"smiles": "CC1=C(C(=O)OC(C)C)C(c2cccc([N+](=O)[O-])c2)N(C(=O)OCc2ccccc2)C(=O)N1", "note": "(stereo unspecified)", "melting point": "158 to 159"}
{"smiles": "CCCCNC(=O)[C@H](C)C[C@H](O)[C@H](CC1CCCCC1)NC(=O)[C@H](Cc1cscn1)NC(=O)[C@@H](CC(=O)N(C)Cc1ccccc1)Cc1ccc(OC)cc1", "melting point": "112 to 114"}
{"smiles": "COc1ccc(C(=O)c2ccc(OCc3nc(-c4ccccc4)oc3C)cc2)c(OC2(C(=O)O)CCC2)c1", "melting point": "199 to 201"}
{"smiles": "CCCc1nc(N)nc(N)c1N1CCNCC1", "melting point": "175 to 176"}
{"smiles": "COc1ccc(-c2[nH]nc3c2C(=O)c2c(NC(=O)Cc4ccc5c(c4)OCO5)cccc2-3)cc1", "melting point": 297}
{"smiles": "CC(C)(C)NC(=O)NC1=CC(=O)CCC1", "melting point": "223 to 225"}
{"smiles": "Cn1ccnc1C=NO", "melting point": "170 to 172"}
{"smiles": "CC(C)(C)CC(=O)Nc1ccc([N+](=O)[O-])cc1", "melting point": "192 to 194"}
{"smiles": "COc1cc(C(=O)O)ccc1Cc1cn(C(C)C)c2ccc(CCCC(=O)N(C)C)cc12", "melting point": "168 to 170"}
{"smiles": "O=C1SC(=Cc2cccs2)C(=O)N1CCCCSc1cccc2nccn12", "melting point": "116 to 117"}
{"smiles": "O=C1OC(=O)c2c(Sc3ccccc3)c(Sc3ccccc3)c(Sc3ccccc3)c(Sc3ccccc3)c21", "melting point": "141 to 142"}
{"smiles": "Cc1nc(-c2ccccc2)nc(-c2ccncc2)c1NC(=O)OC(C)(C)C", "melting point": "166 to 167"}
{"smiles": "CCOC(=O)CCc1cn(Cc2ccc(OCc3nc(-c4ccccc4)oc3C)cc2)nc1-c1ccc(F)cc1", "melting point": "93 to 94"}
{"smiles": "CN(C)CC(=O)N1c2ccccc2N(C)C(=O)c2cnc(-c3ccccc3)nc21", "melting point": "207 to 208"}
{"smiles": "NCCCN1c2ccccc2N=C(c2ccccc2F)c2ccccc21", "melting point": "144 to 145"}
{"smiles": "N#CC(=Cc1ccc2[nH]ccc2c1)S(=O)(=O)c1ccc(OC(F)(F)F)cc1", "melting point": "171 to 175"}
{"smiles": "O=c1c(CCc2nc3ccccc3s2)cc2cccnc2n1-c1cccc([N+](=O)[O-])c1", "melting point": "178 to 179"}
{"smiles": "Cc1cccc2c1NC(=O)C(CCCN1CCN(c3ccccc3F)CC1)S2", "note": "(stereo unspecified)", "melting point": "121 to 123"}
{"smiles": "CC=CC=C1SC(=S)N(CC(=O)O)C1=O", "melting point": "216 to 218"}
{"smiles": "CCCc1c(OCCCOc2ccc3c(c2CCC)OC(C(=O)O)CC3)ccc(C(C)=O)c1O", "note": "(stereo unspecified)", "melting point": "108 to 109"}
{"smiles": "CNS(=O)(=O)c1cc(C2(O)CCC(=O)N2C)ccc1Cl", "note": "(stereo unspecified)", "melting point": "147 to 150"}
{"smiles": "Nc1ccc([N+](=O)[O-])cc1S(=O)(=O)N1CCOCC1", "melting point": "204 to 206"}
{"smiles": "O=S(=O)(CCN1CC(c2ccccc2)C(c2ccc(Cl)cc2)=N1)c1cccc(C(F)(F)F)c1", "note": "(stereo unspecified)", "melting point": "118 to 119"}
{"smiles": "CC(NC(=O)Cc1cc(F)cc(F)c1)C(=O)NC1CCCCCNC(=O)C1", "note": "(stereo unspecified)", "melting point": "> 220"}
{"smiles": "CCCc1nn(C)c2c(=O)[nH]c(-c3cc(Br)ccc3OCC)nc12", "melting point": "157 to 159"}
{"smiles": "CCC(CC)(CC(=O)Nc1cccc(OCc2ccc3ccc(OCc4ccccc4)cc3n2)c1)C(=O)O", "melting point": "89 to 95"}
